We go through two compounds from US7074412B2, “Pharmaceutical composition” (The University of Zurich, priority 2003, dated 2006).

One data set deals with T1, rhBMP-2 dimers (Homo sapiens, UniProt P12643).
T1 sequence (P12643 283-396): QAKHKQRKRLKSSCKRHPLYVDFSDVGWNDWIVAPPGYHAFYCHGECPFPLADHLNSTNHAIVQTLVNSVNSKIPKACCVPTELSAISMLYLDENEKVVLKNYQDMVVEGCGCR
Put plainly: solubilization of rhBMP-2 pellets in phosphate buffered saline with pyrrolidones. As to conditions: 2 h in phosphate buffered saline with increasing amounts of pyrrolidone.

In data set [1] the test system is MC3T3-E1 cells. Put plainly: alkaline phosphatase activity as marker of maturation of preosteoblastic cell line. Type of data set: cell-based. The procedure: (§1) MC3T3-E1 cells were grown in an alpha-modified Minimum Essential Medium (Life Technologies, Inc., Grand Island, N.Y.) containing 10% fetal calf serum (Life Technologies, Inc.), 50 μg/ml gentamycin, and 50 μg/ml ascorbic acid. C3H10T1/2 cells were grown in basal medium Eagle, and 50 μg/ml gentamycin. To examine the action of NMP on both cell lines, 1×10^5 cells per well were plated in 6-well plates and NMP subsequently added. Medium exchange was performed after 3 days and alkaline phosphatase (ALP) was determined according to Lowry, O. et al. [J. Biol. Chem. 207 (1954) 19–37]: p-nitrophenol liberated was converted to p-nitrophenylate by adding 400 μl of 1 M NaOH, which was quantitated by measuring the absorbance at 410 nm (epsilon=17500/molxcm). Alkaline phosphatase activity was normalized to total protein and expressed as nmol nitrophenylate generated per min per mg protein.
First, to verify the osteoinductive activity of NMP an embryonic, murine, mesenchymal stem cell line C3H10T1/2 and a preosteoblastic cell line MC3T3-E1 were used and cultured as described above. C3H10T1/2 cells can differentiate into cartilage, bone or adipose cells, whereas MC3T3-E1 produces and releases autologous BMP. Alkaline phosphatase activity was used as a marker for the differentiation into the osteoblastic lineage. […]

The subject of a further data set is C3H10T1/2 cells. Put plainly: alkaline phosphatase activity in mesenchymal stem cell line. Type of data set: cell-based, murine. The following applies: C3H10T1/2 cells treated with up to 5 mM NMP; data not shown. The protocol:
as §1
First, to verify the osteoinductive activity of NMP an embryonic, murine, mesenchymal stem cell line C3H10T1/2 and a preosteoblastic cell line MC3T3-E1 were used and cultured as described above. C3H10T1/2 cells can differentiate into cartilage, bone or adipose cells, whereas MC3T3-E1 produces and releases autologous BMP. Alkaline phosphatase activity was used as a marker for the differentiation into the osteoblastic lineage.

Data set [2] has as its system MC3T3-E1 cells. Kind of data set: mineralization by Alizarin red-S staining. Format: cell-based. The following applies: 4 weeks, 5 Mm glycerol phosphate and 1 μg/ml rhBMP-2, 2.5 Mm NMP vs no NMP. The procedure:
Alizarin red-S staining was performed after 4 weeks according to Bodine, P. V. N., et al. [J Bone Mineral Res 11 (1996) 806–819].

Protocol for rhBMP-2 dimers: Two to twenty micrograms of the rhBMP protein was lyophilized in a speed-vac to form a solid rhBMP disc. […] After 2 h the protein in the remaining disc was sedimented (22,000×g, 30 min) and the protein content of 20 μl from the supernatant determined by a slot-blot method (Weber, F. E., et al., 2002, supra).

In the case of `O=C1CCCN1` [PB, 2-pyrrolidone], the “potential to solubilize rhBMP-2, grading in declining order” value on rhBMP-2 dimers is given as 1-methyl-2-pyrrolidone (NMP)>1-ethyl-2-pyrrolidone (NEP)>2-pyrrolidone (PB)>1-cyclohexyl-2-pyrrolidone (CP).

`CN1CCCC1=O` [NMP, 1-methyl-2-pyrrolidone]: the “maturation determined by alkaline phosphatase activity, concentration dependence” value in the data set with MC3T3-E1 cells [1] (after 6 days, 0 to 5 Mm of NMP) was “increases in a concentration dependent manner”. In addition, the “increase of alkaline phosphatase activity (factor)” value in the data set with MC3T3-E1 cells [1] (low doses of NMP, MC3T3-E1) is recorded as 2.5–3.0. In the data set with C3H10T1/2 cells, the alkaline phosphatase activity entry is recorded as “not increased”. Further, in the data set on MC3T3-E1 cells [2], the “mineralisation (alizarin-S-staining)” value was “increased mineralisation”. In addition, the “potential to solubilize rhBMP-2, grading in declining order” value on rhBMP-2 dimers is 1-methyl-2-pyrrolidone (NMP)>1-ethyl-2-pyrrolidone (NEP)>2-pyrrolidone (PB)>1-cyclohexyl-2-pyrrolidone (CP).
